# In PMC9586926, “An efflux-susceptible antibiotic-adjuvant with systemic efficacy against mouse infections” (Scientific Reports, 2022):
# Like-named read-outs stand apart in the source and are kept apart here. Where a SMILES comes first, the peptide text is derived from it. [ ]: non-standard residue; d: D form. The star is where a group is joined. 12Ado = NCCCCCCCCCCCC(=O)O; Decanoyl = CCCCCCCCCC(=O)*; Orn = NCCC[C@H](N)C(=O)O
# Key:
# P. aeruginosa = assay: MIC, broth microdilution; assay type: cell-based, Pseudomonas aeruginosa; conditions: broth microdilution in LB, 18–24 h, 37 °C; n = 3 strains
# Description: (§1) Bacteria used in this study consisted of standard American Type Culture Collection (ATCC; Biological Industries, Beit Haemek, Israel) strains, clinically isolated (CI; Sourasky Medical Center, Tel Aviv, Israel) strains, as well as isogenic mutant strains. Gram-negative bacteria included Acinetobacter baumannii ATCC 19606; Escherichia coli ATCC 25922, 35218, CFT073, CI 14384, 16327, and the isogenic pair Ag100 (wild-type) and its efflux deficient mutant Ag100a (ΔacrAB); Klebsiella pneumoniae CI 1287, 224; Pseudomonas aeruginosa ATCC 27853, CI 1278, 8634; Salmonella enterica serovar Typhimurium ATCC 14028 (wild-type) and its isogenic efflux deficient mutant ΔacrAB. Bacteria were grown in Luria–Bertani broth (LB; 5 g/l NaCl, 5 g/l yeast extract, 10 g/l tryptone; pH = 7.0) at 37 °C with shaking. Over-night cultures were diluted 10-folds into fresh growth-medium and incubated at 37 °C with shaking until reaching mid-logarithmic phase. Then, bacterial concentrations were adjusted using O.D.600 nm measurements, and bacteria were subjected to the experimental procedures listed herein.
# (§2) MIC was determined according to the broth microdilution method: antimicrobials were subjected to serial twofold dilutions in LB medium, and incubated with 5 × 10^5 CFU/ml of bacteria (final volume of 200 µl) for 18–24 h at 37 °C. Then, O.D.620 nm was measured (BioTek Instruments Synergy HT; Winooski, VT, USA), and the MIC was defined as the lowest antimicrobial concentration for which no increase in O.D.620 nm was evident, compared to the untreated control.
# E. coli = assay: MIC, broth microdilution; assay type: cell-based, Escherichia coli; conditions: broth microdilution in LB, 18–24 h, 37 °C; n = 4 strains; published data in bold (not discernible)
# Description: as §1, §2
# E. coli Ag100a (ΔacrAB) [1] = conditions: cited from earlier work
# Description: Table 2 Effect of RND pumps on growth-inhibitory activity. | column: MIC^a (µM) in LB / E. coli / Mutant
# [2] = test system: S. Typhimurium 14028 (wild-type); conditions: cited from earlier work
# Description: Table 2 Effect of RND pumps on growth-inhibitory activity. | column: MIC^a (µM) in LB / S. Typhimurium / Wild-Type
# E. coli 25922 [3] = conditions: same assessment tools; cited from earlier work
# Description: To our knowledge, the finding of an adjuvant whose activity is enhanced—rather than repressed—after efflux, is hitherto unreported. One might ask, at this point: If the K-, O and B-based analogs are efflux substrates (as implied by MIC data, Table 2), how come only C10BBc12B is positively affected by efflux?
# [4] = test system: E. coli Ag100 (wild-type); conditions: cited from earlier work
# Description: Table 2 Effect of RND pumps on growth-inhibitory activity. | column: MIC^a (µM) in LB / E. coli / Wild-Type
# [5] = set-up: method as in PMID 28329302; conditions: 40 mg/kg dose; cited from earlier work
# A. baumannii = assay: MIC, broth microdilution; assay type: cell-based, Acinetobacter baumannii; conditions: broth microdilution in LB, 18–24 h, 37 °C; n = 1 strain
# Description: as §1, §2
# HEK-293FT = assay: Cytotoxicity, Alamar blue; assay type: cell-based, human; conditions: 24 h incubation, read-out: IC50 HEK-293FT (50% inhibition of cells respiration)
# Protocol: (§3) Cell lines used in this study included murine RAW 264.7 macrophages and human embryonic kidney HEK-293FT cells (ATCC, Biological Industries, Beit Haemek, Israel). Cells were grown in Dulbecco’s modified eagle medium (DMEM) containing […] glucose, L-glutamine, sodium bicarbonate and sodium pyruvate, supplemented with 10% fetal bovine serum and pen-strep, at 37 °C and 5% CO2.
# (§4) Lipopeptides cytotoxicity was determined using fluorescent measurements of reduced resazurin. 2 × 10^4 cells were first cultured in 96-well plates over-night (final volume of 100 µl) at 37 °C and 5% CO2. Then, the medium was removed and cells were incubated for an additional 24 h with serial twofold dilutions of the lipopeptides in growth medium. Then, 10 µl of Alamar blue were added and plates were incubated for 3 h, after which fluorescence (excitation: 530 nm; emission: 590 nm) of the reduced resazurin was recorded (BioTek Instruments Synergy HT; Winooski, VT, USA).
# murine RBC = assay: Hemolysis; assay type: cell-based; conditions: 1% hematocrit murine RBC, 3 h, 37 °C
# Protocol: Permeabilization of red blood cells (RBC) was evaluated using absorbance measurements of extracellular hemoglobin. Serial twofold dilutions of lipopeptides were incubated with 1% hematocrit of murine RBC for 3 h at 37 °C with shaking. Samples were then centrifuged at 20,000 RCF for 5 min, and absorbance of the supernatants was measured at 450 nm (BioTek Instruments Synergy HT; Winooski, VT, USA). Percent hemolysis was then calculated by (AS − AN)/(AP − AN) × 100; where AS, AN, and AP represent the absorbance of the sample, negative control (PBS) and positive control (Milli-Q water), respectively. LC50 values were extracted from trend-lines generated for linear-regions of plots correlating lipopeptide concentrations and percent hemolysis.
# [6] = test system: S. Typhimurium 14028ΔAcrAB; conditions: cited from earlier work
# Description: Table 2 Effect of RND pumps on growth-inhibitory activity. | column: MIC^a (µM) in LB / S. Typhimurium / Mutant
# RAW 264.7 = assay: Cytotoxicity, Alamar blue; assay type: cell-based, murine; conditions: 24 h incubation, read-out: IC50 RAW 264.7 (50% inhibition of cells respiration)
# Protocol: as §3, §4
# K. pneumoniae = assay: MIC, broth microdilution; assay type: cell-based, Klebsiella pneumoniae; conditions: broth microdilution in LB, 18–24 h, 37 °C; n = 2 strains
# Description: as §1, §2
# [7] = test system: S. Typhimurium 14028 (wild-type); assay: MIC, broth microdilution, wild-type strain; assay type: cell-based, Salmonella enterica serovar Typhimurium
# Description: as §1
# (§5) MIC was determined according to the broth microdilution method: antimicrobials were subjected to serial twofold dilutions in LB medium, and incubated with 5 × 10^5 CFU/ml of bacteria (final volume of 200 µl) for 18–24 h at 37 °C. […]
# [8] = test system: S. Typhimurium 14028ΔAcrAB; assay: MIC, broth microdilution, efflux deficient mutant; assay type: cell-based, Salmonella enterica serovar Typhimurium
# Description: as §1, §5
# E. coli 25922 [9] = assay: Outer membrane permeabilization, NPN fluorescence; assay type: cell-based, Escherichia coli
# Protocol: Lipopeptides ability to permeabilize the OM was evaluated using fluorescent measurements of N-phenyl-1-naphthylamine (NPN)[67]. 200 µl of an over-night culture were diluted into 10 ml of fresh LB medium and incubated at 37 °C with shaking until reaching O.D.600 nm = 0.5. The culture was then centrifuged at 10,000 RCF for 3 min, the supernatant aspirated, and the pellet resuspended in equal volume of 5 mM HEPES containing 5 mM glucose (pH = 7.2). This suspension was then mixed with NPN (5 mM in acetone) to reach a final NPN concentration of 10 µM. Then, 190 µl of this mixture were dispensed into black microtiter plates, mixed with 10 µl of HEPES containing serial twofold dilutions of lipopeptides and fluorescence (excitation: 360 nm; emission: 460 nm) was recorded immediately for up to 10 min at 37 °C with shaking[29] (BioTek Instruments Synergy HT; Winooski, VT, USA). In a modified version of this assay, in which efflux was inhibited, bacteria (similarly prepared) were incubated with the lipopeptides in presence or absence of 100 µM CCCP for 5 min. Samples were then twice centrifuged at 10,000 RCF for 3 min, the supernatant aspirated, and the pellet resuspended in equal volume of 5 mM HEPES containing 20 mM glucose (pH = 7.2), so as to re-energize the efflux machinery. NPN was then added (final concentration of 10 µM) and fluorescence was recorded immediately thereafter.
# E. coli Ag100a (ΔacrAB) [10] = assay: MIC, broth microdilution, efflux deficient mutant; assay type: cell-based, Escherichia coli; conditions: Ag100a
# Description: as §1, §5
# E. coli 25922 [11] = assay: Cytoplasmic membrane depolarization, DiSC3(5) fluorescence; assay type: cell-based, Escherichia coli; conditions: C10BBc12B up to 10 µM; PMB 2.5 µM
# Protocol: Lipopeptides aptitude to depolarize the CM was evaluated using fluorescent measurements of the transmembrane potential sensitive dye 3,3′-Dipropylthiadicarbocyanine iodide (DiSC3(5))[69]. Bacteria (O.D.600 nm = 0.1) were washed by centrifugation at 10,000 RCF for 5 min, supernatant aspiration, and pellet resuspension in 5 mM HEPES containing 20 mM glucose, 50 mM KCl and 0.2 mM EDTA (pH = 7.2). This suspension was mixed with DiSC3(5) (400 µM in DMSO) to reach a final DiSC3(5) concentration of 4 µM and was incubated in the dark for 1 h at 37 °C with shaking. Then, 180 µl of this mixture were dispensed into black microtiter plates and fluorescence was recorded (excitation: 622 nm; emission: 670 nm) at 37 °C with shaking until baseline stabilization (BioTek Instruments Synergy HT; Winooski, VT, USA). Finally, 20 µl of HEPES containing serial twofold dilutions of lipopeptides were added and fluorescence was recorded for up to 30 min at the same conditions.
# [12] = test system: E. coli Ag100 (wild-type); assay: MIC, broth microdilution, wild-type strain; assay type: cell-based, Escherichia coli
# Description: as §1, §5
# E. coli 25922 [13] = conditions: ref 23 (C14(ɷ5)OOc10O), ref 41 (PMBN); cited from earlier work
# Description: Towards better understanding the synergistic mechanism, we compared individual growth kinetics to determine contributions of each antimicrobial and assessed the type and extent of implicated membrane damages, assuming that low OM-permeability underlies the observed antibiotics inefficiencies by impeding their intracellular accumulation.
molecule,measurement,setting,value
CCCCCCCCCC(=O)N[C@@H](CCCN)C(=O)N[C@@H](CCCN)C(=O)NCCCCCCCCCCCC(=O)N[C@@H](CCCN)C(N)=O [C10OOc12O] (Decanoyl-[Orn][Orn][12Ado][Orn]-NH2),MIC P. aeruginosa (n=3),P. aeruginosa,> 50 µM
same,MIC E. coli (n=4),E. coli,≥ 50 µM
same,"MIC (µM) in LB, E. coli Mutant",E. coli Ag100a (ΔacrAB) [1],6.2 µM
same,"MIC (µM) in LB, S. Typhimurium Wild-Type",[2],> 50 µM
same,CM depolarization,E. coli 25922 [3],interact with the CM to the point of inducing its depolarization
same,"MIC (µM) in LB, E. coli Wild-Type",[4],> 50 µM
same,mortality,[5],mortality of another mouse was recorded within an hour
same,MIC A. baumannii (n=1),A. baumannii,> 50 µM
same,IC50,HEK-293FT,> 50 µM
same,LC50 Erythrocytes (50% hemolysis),murine RBC,> 50 µM
same,"MIC (µM) in LB, S. Typhimurium Mutant",[6],6.2 µM
same,IC50,RAW 264.7,> 50 µM
same,MIC K. pneumoniae (n=2),K. pneumoniae,> 50 µM
Polymyxin B [reference compound],"MIC (µM) in LB, S. Typhimurium Wild-Type",[7],0.7 µM
same,"MIC (µM) in LB, S. Typhimurium Mutant",[8],0.7 µM
same,reduction of NPN fluorescence by 10 mM MgCl2,E. coli 25922 [9],much less
same,"MIC (µM) in LB, E. coli Mutant",E. coli Ag100a (ΔacrAB) [10],0.7 µM
same,CM depolarization (trans-membrane potential),E. coli 25922 [11],rapid CM-depolarization
same,"MIC (µM) in LB, E. coli Wild-Type",[12],0.7 µM
polymyxin B nonapeptide [PMBN],effect of sub-inhibitory concentrations on bacterial growth in absence of antibiotics,E. coli 25922 [13],transiently inhibited bacterial growth
